From patent US20200291444A1, “Macrocyclisation Tags” (Oxford University Innovation LTD, priority 2017, published 2020)
Entries after “also recorded” stand apart in the source; their conditions may differ. Read-outs that look alike come from different tables or passages of the source. No end group written: not given here.

Experiments:
GmPOPB_S577A = molecular target: T1, GmPOPB_S577A (Galerina marginata, UniProt H2E7Q8, S577A); assay: ITC binding to inactive mutant GmPOPB_S577A; conditions: for binding (in words): concentrations up to 1 mM
T1 construct: His-tag (TEV-cleavable) (cleaved yes); made in house; host or cells: E. coli BL21(DE3)
T1 sequence (H2E7Q8 1-730 S577A): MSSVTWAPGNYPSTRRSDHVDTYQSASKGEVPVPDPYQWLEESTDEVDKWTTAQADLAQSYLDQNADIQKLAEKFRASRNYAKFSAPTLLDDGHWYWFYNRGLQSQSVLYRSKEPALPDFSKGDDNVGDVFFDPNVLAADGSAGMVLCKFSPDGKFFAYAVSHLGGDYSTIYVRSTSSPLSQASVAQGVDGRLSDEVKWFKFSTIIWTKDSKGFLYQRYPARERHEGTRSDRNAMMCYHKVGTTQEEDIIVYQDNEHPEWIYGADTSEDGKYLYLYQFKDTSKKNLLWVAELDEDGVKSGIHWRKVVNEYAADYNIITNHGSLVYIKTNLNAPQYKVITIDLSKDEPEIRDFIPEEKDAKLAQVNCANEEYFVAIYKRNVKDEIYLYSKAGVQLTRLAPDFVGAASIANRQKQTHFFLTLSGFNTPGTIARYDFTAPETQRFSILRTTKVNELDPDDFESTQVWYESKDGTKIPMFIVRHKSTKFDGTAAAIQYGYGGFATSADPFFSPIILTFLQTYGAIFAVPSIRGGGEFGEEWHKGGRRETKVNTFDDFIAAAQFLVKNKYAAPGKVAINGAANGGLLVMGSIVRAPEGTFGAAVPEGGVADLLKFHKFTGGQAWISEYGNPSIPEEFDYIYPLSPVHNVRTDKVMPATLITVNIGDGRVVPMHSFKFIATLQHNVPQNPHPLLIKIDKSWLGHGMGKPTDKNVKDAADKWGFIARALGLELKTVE
Procedure: GmPOPB peptide ligand solutions were prepared in 20 mM Tris pH 8.0 containing 1 mM DTT, prior to buffer exchange by three cycles of dilution in 50 mM Tris pH 8.0 with 50 mM NaCl, 10 mM DTT followed by concentration using a Microsep Advance centrifugal device equipped with a 1 kDa cut off membrane (Pall Corporation). The same three cycles of dilution in 50 mM Tris pH 8.0 with 50 mM NaCl and 10 mM DTT followed by concentration were performed with the protein to be used in the titration using a Vivaspin protein concentrator spin column with a 30 kDa cut off (GE Healthcare). A final dilution to the concentration to be used for titration was performed using the buffer that passed through during the protein buffer exchange, both for the protein and peptide to be used to avoid any possible buffer mismatch. […] Titrations of peptide into protein solutions were conducted at 20° C. For all the titration experiments, a total of 19 injections of 2 μL were made at 120 s intervals. The heat released due to the first injection (0.4 μL) was excluded from data analyses. […] Equilibrium dissociation constants (Kd) as well as ΔH and ΔS values for binding of each peptide to protein were obtained by fitting the calorimetric data with a single-site model using the stoichiometry parameter n fixed at 1.0 using Malvern PEAQ-ITC data analysis software.
We performed all ITC binding experiments at least in duplicate, and calculations of average and standard error of the mean were performed with GraphPad Prism.

PCY1 = PCY1 macrocyclisation of truncated presegetalin F1 substrates with catalytic peptide; assay type: biochemical, Saponaria vaccaria; conditions: for effect of catalytic peptide on rate of PreF1coreT macrocyclisation: substrate PreF1coreT (FSASYSSKPIQT), 500 μM catalytic peptide
PCY1, sequence (as listed by the source): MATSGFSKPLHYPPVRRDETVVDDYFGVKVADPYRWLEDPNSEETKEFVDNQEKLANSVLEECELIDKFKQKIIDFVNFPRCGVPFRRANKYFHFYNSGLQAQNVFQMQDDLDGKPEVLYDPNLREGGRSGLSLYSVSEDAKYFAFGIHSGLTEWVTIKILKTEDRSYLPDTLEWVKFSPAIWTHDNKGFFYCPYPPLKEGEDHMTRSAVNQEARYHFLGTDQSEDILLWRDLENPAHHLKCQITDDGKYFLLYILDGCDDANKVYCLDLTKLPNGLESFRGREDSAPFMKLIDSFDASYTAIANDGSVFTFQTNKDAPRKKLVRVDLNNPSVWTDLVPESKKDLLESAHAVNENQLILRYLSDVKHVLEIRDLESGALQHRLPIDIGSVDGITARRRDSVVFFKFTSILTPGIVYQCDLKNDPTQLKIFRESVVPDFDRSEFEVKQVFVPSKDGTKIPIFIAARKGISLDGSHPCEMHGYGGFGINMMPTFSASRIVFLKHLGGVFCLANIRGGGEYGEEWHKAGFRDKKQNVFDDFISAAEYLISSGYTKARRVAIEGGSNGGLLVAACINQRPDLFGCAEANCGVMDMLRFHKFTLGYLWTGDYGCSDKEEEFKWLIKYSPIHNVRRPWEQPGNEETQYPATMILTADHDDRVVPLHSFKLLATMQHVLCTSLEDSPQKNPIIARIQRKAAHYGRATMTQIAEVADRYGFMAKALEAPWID
Procedure: Initial rate measurements at different substrate concentrations were performed in order to derive steady state kinetics. All reactions were performed with 0.25 μM PCY1 and 25, 50, 100, 200, 400 or 800 μM substrate ([…] or […]). Reactions containing catalytic peptide RNASAPV or DNASAPV were supplemented with 500 μM of each peptide, respectively. Reactions were performed in 20 mM TRIS pH 8.5, 100 mM NaCl, 5 mM DTT at 30° C. Time points were taken at 5, 15, 30, 45 and 60 min. Samples (50 μL) at each time point were quenched with 20 μL of 6% (v/v) TFA and then spun down for 30 min at 3,080×g. Samples were analysed via LC/MS (ZORBAX SBC18, 5 μm, 9.4 mm×50 mm (Agilent) column connected to an Agilent LC-MS instrument (G6130B Single Quad, Agilent Technologies)) using 0.1% (v/v) formic acid and a gradient of acetonitrile (5%-95%). Extracted ion count peaks for corresponding product (A[[…]]) masses ([M]: 954.44, [M]+H^+: 955.44 and [M]+Na^+: 977.44) were integrated and converted in corresponding product concentration using an ion count v. [product] calibration curve. Product concentration time courses were analysed with linear regression and slopes were plotted as a function of substrate concentrations (Michaelis Menten plot), deriving steady state kinetic parameters shown in FIGS. 7 to 9.

PCY1:S562A = assay: ITC equilibrium binding to PCY1:S562A; set-up: species or system Saponaria vaccaria; conditions: ITC, 25° C.
PCY1:S562A, sequence (as listed by the source, stated change not applied): as the sequence (as listed by the source) above, with S562A counted along it
Procedure: All PCY1 samples were buffer-exchanged or solubilized into buffer F and further diluted in the same batch of buffer F, in order to minimize buffer mismatches. ITC binding experiments were performed using a cell solution containing PCY1:S562A and a titrant solution with each peptide used. […] The measurements were performed at a stir speed of 750 rpm at 25° C. using a reference power of 10 μcal/s, except for A1-NH2 (5 μcal/s). A buffer titration control in which peptide was titrated into buffer was performed for each experiment. Data processing, fitting to a non-linear one-site binding model, and data plotting was performed using MicroCal PEAQ ITC analysis software (Malvern). […] The measurement was performed in buffer at 30° C., at 750 rpm using a reference power of 5 μcal/s.

[1] = ITC, 20° C., S577A mutant, read-out: Kd

For `CC[C@H](C)[C@H](NC(=O)CNC(=O)[C@H](Cc1c[nH]c2ccccc12)NC(=O)[C@@H](NC(=O)[C@@H]1CCCN1C(=O)[C@H](CC(C)C)NC(=O)[C@H](CCCNC(=N)N)NC(=O)[C@@H](NC(=O)[C@H](C)NC(=O)[C@H](CC(N)=O)NC(=O)[C@@H](NC(=O)[C@H](CC(=O)O)NC(=O)[C@H](Cc1ccccc1)NC(=O)[C@@H](N)CCSC)[C@@H](C)O)[C@@H](C)O)[C@@H](C)CC)C(=O)NCC(=O)N[C@@H](CS)C(=O)N[C@@H](CC(N)=O)C(=O)N1CCC[C@H]1C(=O)N[C@@H](Cc1c[nH]c2ccccc12)C(=O)N[C@H](C(=O)N[C@@H](C)C(=O)N[C@@H](CCC(=O)O)C(=O)N[C@@H](Cc1c[nH]cn1)C(=O)N[C@H](C(=O)N[C@@H](CC(=O)O)C(=O)N[C@@H](CCC(N)=O)C(=O)N[C@H](C(=O)N[C@@H](CC(C)C)C(=O)N[C@@H](C)C(=O)N[C@@H](CO)C(=O)NCC(=O)N[C@@H](CC(N)=O)C(=O)N[C@@H](CC(=O)O)C(=O)N[C@H](C(=O)N[C@@H](CS)C(=O)O)[C@@H](C)CC)[C@@H](C)O)C(C)C)[C@@H](C)O` [35mer, reference compound], the Kd (GmPOPB_S577A; [1]) was 0.12 ± 0.03 µM.

For DNASAPV [catalytic peptide for PCY1], the “effect of catalytic peptide on rate of PreF1coreD macrocyclisation” value (PCY1; substrate PreF1coreD (FSASYSSKPIQD), mismatched catalytic peptide) was “reduces the rate”.

In the case of H-IWGIGCNPWT [10mer], the Kd (GmPOPB_S577A; [1]) is reported as 83 ± 17 µM.

With H-IWGIGCNPWTA [11mer] the Kd (GmPOPB_S577A; [1]) was 39 ± 18 µM.

For H-IWGIGCNPWTAE [12mer], the Kd (GmPOPB_S577A; [1]) was 21 ± 5 µM.

For MFDTNATRLP [reference compound], the “binding (in words)” value (GmPOPB_S577A; ITC) was “no detectable binding”, the “binding (in words)” value (GmPOPB_S577A; ITC, listed as 10-residue leader) was “does not bind” and the “binding (in words)” value (GmPOPB_S577A; ITC, listed as leader) was “does not bind”.

Work on “PresegD1: native linear PCY1 substrate presegetalin D1 (GLSFAFPAKDAENASSPV)” yielded a Kd (PCY1:S562A) of about 200 nM.

In the case of RAANSAPV [catalytic peptide for PCY1], the “effect of catalytic peptide on rate of PreF1coreT macrocyclisation” value (“effect … of PreF1coreT macrocyclisation” below) (PCY1) is reported as “increase in the rate”.

In the case of RANASAPV [catalytic peptide for PCY1], the “effect … of PreF1coreT macrocyclisation” value (PCY1) is reported as “increase in the rate”.

RASAPV was tested, and the “effect … of PreF1coreT macrocyclisation” value (PCY1) was “increase in the rate”.

With RGANASAPV [catalytic peptide for PCY1] the “effect … of PreF1coreT macrocyclisation” value (PCY1) was “increase in the rate”.

RGGNASAPV [catalytic peptide for PCY1] was tested, and the “effect … of PreF1coreT macrocyclisation” value (PCY1) was “increase in the rate”.

RGNASAPV [catalytic peptide for PCY1] was tested, and the “effect … of PreF1coreT macrocyclisation” value (PCY1) was “increase in the rate”.

In the case of RNASAPV [catalytic peptide for PCY1], the “effect … of PreF1coreT macrocyclisation” value (PCY1) is reported as “increases the rate; also recorded: increase in the rate”.

For TLASGNDIC [9mer-recogSeq], the Kd (GmPOPB_S577A) was 121 ± 19 µM.

VDQTLASGNDIC [12mer-recogSeq] was tested, and the Kd (GmPOPB_S577A) was 5 ± 1 µM and the “difference in binding affinity (fold)” value (GmPOPB_S577A; 13mer versus 35mer, 12 versus 17 amino acid recognition sequence) was 20 fold.
